What was measured:
Format in all cases: cell-based, canine
CMT-7364 cells [1] = assay: Cell migration (wound healing) assay; conditions: 0.9 μM, 24 h, relative to cells without celastrol
Protocol: (§1) CMT-7364 and CIPp cell suspensions were uniformly seeded in a 6-well cell culture plate at a concentration of 1 × 10^5 cells/well. After the cells were fully confluent (more than 90 % of confluence), a 200-μl sterile pipette tip was used to scratch a straight line in the cells of each well. PBS was used to wash away the cell debris and floated cells, and 10% serum-containing medium (control group) and 10% serum-containing medium with celastrol (0.3 μM or 0.9 μM) (test group) were added, respectively, then cells were incubated for 24 h in an incubator. Mitomycin C (1 μM) was used to inhibit cell proliferation. Images of cell migration (wound healing) of the same field were taken with an inverted microscope at 0 and 24 h time points, respectively, followed by analyzing the cell migration rate with ImageJ software (version 1.8.0, United States). In brief, 6–8 horizontal lines were randomly drawn in the wound area to calculate the average value of the distance between cells. The migration rate = [(Distance celastrol0h-Distance celastrol24h) / (Distance control0h-Distance control24h)] × 100%.

CIPp cells [2] = assay: Cell migration (wound healing) assay; conditions: 0.9 μM, 24 h, relative to cells without celastrol
Protocol: as §1

CMT-7364 cells [3] = assay: Cell cycle distribution, PI staining, flow cytometry; conditions: 24 h (0 μM: 5.6%)
Protocol: (§2) To investigate whether celastrol inhibits the proliferation of canine mammary tumor cells by regulating the cell cycle, we treated canine mammary tumor cells with celastrol for 24 h, then stained cells with PI followed by flow cytometry to detect the percentage of different cell cycle phases. […] Furthermore, we detected the expression of mRNA and protein of cell cycle–related factors by qPCR and Western blotting.

CIPp cells [4] = assay: as above; conditions: 24 h (0 μM: 12.0%)
Protocol: as §2

CMT-7364 cells [5] = assay: Colony formation assay; conditions: 0.3 μM or 0.9 μM for 24 h, then 10 days, vs control group
Protocol: (§3) CMT-7364 and CIPp cells were seeded in a 6-well cell culture plate at a concentration of 1 × 10^4 cells/well until they became adherent, cultured for another 24 h with serum-containing medium with 0 μM celastrol (control group), 0.3 μM celastrol, and 0.9 μM celastrol, respectively. Cells were treated with 0.25% trypsin (Gibco, NY, United States) and resuspended into single cells, each group of cells was seeded in a 6-well cell culture plate at 400 cells/well concentration, and cultured for 10 consecutive days. […] The cells were stained with 0.1% crystal violet, and photographed with a digital camera, followed by calculating the number of colonies.

CIPp cells [6] = assay: Colony formation assay; conditions: 0.3 μM or 0.9 μM for 24 h, then 10 days, vs control group
Protocol: as §3

CMT-7364 cells [7] = assay: qPCR of Caspase-3, Caspase-9, p21, p27 mRNA (2^-ΔΔCt, β-actin reference)
Protocol: (§4) After CMT-7364 and CIPp cells were treated with or without 0.9 μM celastrol for 24 h, TRIzol was used to isolate the total RNA of the cells. The RNA was then reverse transcribed into cDNA using a reverse transcriptase kit. A 20 μl reaction system was prepared according to the manufacturer's instructions and tested in the Real-Time PCR System (Long Gene Q1000, China). The results were analyzed by the 2^−ΔΔCt method: ΔΔCt = (target gene Ct of the experimental group-internal reference gene Ct of the experimental group)-(target gene Ct of the control group-internal reference gene Ct of the control group), β-actin was the internal reference gene.

CIPp cells [8] = assay: as above
Protocol: as §4

[9] = CMT-7364, 0.9 μM celastrol, SYBR
[10] = CMT-7364 cells, 0.9 μM, 24 h, qPCR, vs control
[11] = test 1, CMT-7364 cells, 0.9 μM, instrument sheet, CMT-7364 control RQ 1
[12] = CIPp cells, 0.9 μM, 24 h, qPCR, vs control

CC1=C(O)C(=O)C=C2C1=CC=C1[C@@]2(C)CC[C@@]2(C)[C@@H]3C[C@](C)(C(=O)O)CC[C@]3(C)CC[C@]12C [celastrol, Celastrol] was tested, and the migration rate (CMT-7364 cells [1]) was 55.33 ± 4.91%, the migration rate (CIPp cells [2]) was 52.00 ± 1.73% and the “percentage of cell cycle G2/M phase” value (CMT-7364 cells [3]; 0.3 μM) was 20.3%. The “percentage of cell cycle G2/M phase” value (CMT-7364 cells [3]; 0.9 μM) was 32.7%, the “percentage of cell cycle G2/M phase” value (CIPp cells [4]; 0.3 μM) was 21.9% and the “percentage of cell cycle G2/M phase” value (CIPp cells [4]; 0.9 μM) was 34.4%. For the same compound, the formation of colonies (CMT-7364 cells [5]) was “significantly inhibited the formation of colonies”, the formation of colonies (CIPp cells [6]) was “significantly inhibited the formation of colonies” and the “RQ Max, caspase-9” value (CMT-7364 cells [7]; [9]) was 2.21. For the same compound, the “RQ Max, p-27” value (CMT-7364 cells [7]; [9]) was 1.96, the “RQ Max, β-actin” value (CMT-7364 cells [7]; [9]) was 1.84 and the “RQ Min, caspase-9” value (CMT-7364 cells [7]; [9]) was 0.45. For the same compound, the “RQ Min, p-21” value (CMT-7364 cells [7]; [9]) was 0, the “RQ Min, p-27” value (CMT-7364 cells [7]; [9]) was 0.51 and the “RQ Min, β-actin” value (CMT-7364 cells [7]; [9]) was 0.54. The “RQ, caspase-9” value (CMT-7364 cells [7]; [9]) was 1, the “RQ, p-21” value (CMT-7364 cells [7]; [9]) was 1 and the “RQ, p-27” value (CMT-7364 cells [7]; [9]) was 1. For the same compound, the “RQ, β-actin” value (CMT-7364 cells [7]; [9]) was 1, the “mRNA expression level of Caspase-3” value (CMT-7364 cells [7]; [10]) was “significantly up-regulated” and the “mRNA expression level of Caspase-9” value (CMT-7364 cells [7]; [10]) was “significantly up-regulated”. For the same compound, the “mRNA expression level of p21” value (CMT-7364 cells [7]; [10]) was “up-regulated”, the “mRNA expression level of p27” value (CMT-7364 cells [7]; [10]) was “up-regulated” and the “RQ, caspase-3” value (CMT-7364 cells [7]; [11]) was 0.26. The “RQ, caspase-9” value (CMT-7364 cells [7]; [11]) was 0.29, the “RQ, p-21” value (CMT-7364 cells [7]; [11]) was 0.53 and the “RQ, p-27” value (CMT-7364 cells [7]; [11]) was 0.19. For the same compound, the “RQ, p-27” value (CMT-7364 cells [7]; test 2, CMT-7364 cells, 0.9 μM, instrument sheet, this sample is the calibrator (ΔΔCt 0.00), CMT-7364 control RQ 1.47) was 1, the “RQ, caspase-9” value (CMT-7364 cells [7]; test 2, CMT-7364 cells, 0.9 μM, instrument sheet, this sample is the calibrator (ΔΔCt 0.00), CMT-7364 control RQ 25.61) was 1 and the “RQ, p-21” value (CMT-7364 cells [7]; test 2, CMT-7364 cells, 0.9 μM, instrument sheet, this sample is the calibrator (ΔΔCt 0.00), CMT-7364 control RQ 51.05) was 1. For the same compound, the “mRNA expression level of Caspase-3” value (CIPp cells [8]; [12]) was “significantly up-regulated”, the “mRNA expression level of Caspase-9” value (CIPp cells [8]; [12]) was “significantly up-regulated” and the “mRNA expression level of p21” value (CIPp cells [8]; [12]) was “up-regulated”. For the same compound, the “mRNA expression level of p27” value (CIPp cells [8]; [12]) was “up-regulated”, the “RQ Max, caspase-9” value (CIPp cells [8]; CIPp, 0.9 μM celastrol, SYBR) was 2.2 and the “RQ Max, p-21” value (CIPp cells [8]; CIPp, 0.9 μM celastrol, SYBR) was 155.13. The “RQ Max, p-27” value (CIPp cells [8]; CIPp, 0.9 μM celastrol, SYBR) was 4.26, the “RQ Max, β-actin” value (CIPp cells [8]; CIPp, 0.9 μM celastrol, SYBR) was 0.51 and the “RQ Min, caspase-9” value (CIPp cells [8]; CIPp, 0.9 μM celastrol, SYBR) was 0.78. The “RQ Min, p-21” value (CIPp cells [8]; CIPp, 0.9 μM celastrol, SYBR) was 3.13, the “RQ Min, p-27” value (CIPp cells [8]; CIPp, 0.9 μM celastrol, SYBR) was 1.54 and the “RQ Min, β-actin” value (CIPp cells [8]; CIPp, 0.9 μM celastrol, SYBR) was 0.16. For the same compound, the “RQ, caspase-9” value (CIPp cells [8]; CIPp, 0.9 μM celastrol, SYBR) was 1.31, the “RQ, p-21” value (CIPp cells [8]; CIPp, 0.9 μM celastrol, SYBR) was 22.02 and the “RQ, p-27” value (CIPp cells [8]; CIPp, 0.9 μM celastrol, SYBR) was 2.56. For the same compound, the “RQ, β-actin” value (CIPp cells [8]; CIPp, 0.9 μM celastrol, SYBR) was 0.29, the “RQ, caspase-9” value (CIPp cells [8]; test 1, CIPp cells, 0.9 μM, instrument sheet, calibrator CMT-7364 control RQ 1, CIPp control RQ 0.41) was 0.44 and the “RQ, caspase-3” value (CIPp cells [8]; test 1, CIPp cells, 0.9 μM, instrument sheet, calibrator CMT-7364 control RQ 1, CIPp control RQ 0.46) was 0.42. The “RQ, p-21” value (CIPp cells [8]; test 1, CIPp cells, 0.9 μM, instrument sheet, calibrator CMT-7364 control RQ 1, CIPp control RQ 0.49) was 0.27, the “RQ, p-27” value (CIPp cells [8]; test 1, CIPp cells, 0.9 μM, instrument sheet, calibrator CMT-7364 control RQ 1, CIPp control RQ 0.59) was 0.17 and the “RQ, caspase-9” value (CIPp cells [8]; test 2, CIPp cells, 0.9 μM, instrument sheet, calibrator CMT-7364 0.9 μM celastrol RQ 1, CIPp control RQ 156.08) was 8.49. The “RQ, p-21” value (CIPp cells [8]; test 2, CIPp cells, 0.9 μM, instrument sheet, calibrator CMT-7364 0.9 μM celastrol RQ 1, CIPp control RQ 156.97) was 12.17 and the “RQ, p-27” value (CIPp cells [8]; test 2, CIPp cells, 0.9 μM, instrument sheet, calibrator CMT-7364 0.9 μM celastrol RQ 1, CIPp control RQ 162.87) was 12.46.

Reference: PMC8854749, “Celastrol Inhibits Canine Mammary Tumor Cells by Inducing Apoptosis via the Caspase Pathway” (Frontiers in Veterinary Science, 2022)
